Entries after “also recorded” stand apart in the source; their conditions may differ. *1 amine or outer side, *2 acyl side, *3 side chain or, on linkers, in order; H or OH if unused. Where a SMILES comes first, the peptide text is derived from it. Bridges are numbered along the chain shown (N, C = ends). [ ]: non-standard residue; d: D form. Adda = CO[C@@H](Cc1ccccc1)[C@@H](C)/C=C(C)/C=C/[C@H](N[*:1])[C@H](C)C(=O)[*:2]; dAsp(3S-Me) = C[C@H](C(=O)[*:3])[C@@H](N[*:1])C(=O)[*:2]; d(γGlu) = O=C(O)[C@@H](CCC(=O)[*:2])N[*:1]; NMeDha = C=C(NC)C(=O)O
Columns and labels:
[1] = tested on: isolated rat liver mitochondria; assay type: biochemical
cells = assay type: cell-based
Primary rat hepatocytes = assay type: cell-based
HepG2 cells [2] = assay: Western blot of protein phosphorylation (anti-phospho-serine) in HepG2 cells; assay type: cell-based
Description: FIG. 2. Western blot analysis of HepG2 cells treated with MCLR in the presence of EndoPorter for 24 h, primary antibodies used were anti-phospho-serine. Blot analysis show dependence of protein phosphorylation on MCLR concentration.
A number of other markers of cellular function were also investigated for their alterations in response to MCLR treatment of cells in the presence of transport reagent. […] Metabolic parameters such as intracellular levels of ATP and NAD(P)H were seen unchanged.

HepG2 cells [3] = assay: O2 consumption toxicity assay in HepG2 cells, with and without transport reagent; assay type: cell-based
Jurkat cells [4] = assay: O2 consumption toxicity assay in Jurkat cells, with and without transport reagent; assay type: cell-based
Jurkat cells [5] = assay: ATP content in Jurkat cells, with and without transport reagent; assay type: cell-based
Source text: A number of other transport reagents, toxicants, cell models and parameters of cellular function were examined, using the general assay format described in Example 1.

Compound | Effect on O2 consumption of isolated mitochondria [1] | Intracellular level of ATP (cells) | Intracellular level of NAD(P)H (cells) | Concentration at which parameters of cellular function were affected (Primary rat hepatocytes) | O2 consumption, observed effect (Primary rat hepatocytes) | IC50 (Primary rat hepatocytes; read-out: O2 consumption, IC50) | Protein phosphorylation/dephosphorylation in Western blots (HepG2 cells [2]) | Concentration above which significant effects on O2 consumption were seen (HepG2 cells [3]) | Peak of bell-shape dose response of O2 consumption (HepG2 cells [3]) | Concentration above which significant effects on O2 consumption were seen (Jurkat cells [4]) | O2 consumption / toxicity, observed effect (Jurkat cells [4]) | O2 consumption, observed effect (Jurkat cells [4]) | ATP content, observed effect (Jurkat cells [5])
C=C1C(=O)N[C@H](C)C(=O)N[C@@H](CC(C)C)C(=O)N[C@@H](C(=O)O)[C@H](C)C(=O)N[C@@H](CCCNC(=N)N)C(=O)N[C@@H](/C=C/C(C)=C/[C@H](C)[C@H](Cc2ccccc2)OC)[C@H](C)C(=O)N[C@@H](C(=O)O)CCC(=O)N1C [MCLR, Microcystin-LR] (R[Adda][d(γGlu)][NMeDha][dA]L[dAsp(3S-Me)]-OH; lactam N-7) | uncoupling effect | unchanged | unchanged | ≥ 0.5 nM | dose-dependent decreases in oxygen consumption | 2.74 nM | altered protein phosphorylation/dephosphorylation | above 0.1 nM | around 0.5 nM | above 0.1 nM | strong toxicity; also recorded: respiration decreased | no detectable toxicity; also recorded: No effect at 10 μM | No effect at 10 μM; also recorded: Dose dependent decrease
Aflatoxin B1 |  |  |  |  |  |  |  |  |  |  | increased toxicity |  | 

— patent publication US20110136163A1, “Method of Toxicological Assessment” (priority 2008, published 2011)
